According to patent publication US6596772B1, “Phosphate mimics and methods of treatment using phosphatase inhibitors” (Sugen, Inc., priority 1999, dated 2003):
pIC50: −log10 of the molar value.

These compounds were tested against T1, PTP EPSILON (Homo sapiens, UniProt P23469) (assay: PTP IC50 assay, pNPP or FDP as substrate). Settings: pNPP or FDP as substrate, 25° C.; read-out: PTP IC50 Epilson.
T1 construct: made in house; host or cells: Sf-9 insect cells (pFastBac-G2T); a pGEX 6P-1 construct also existed
T1 sequence (P23469 80-393 limits assumed): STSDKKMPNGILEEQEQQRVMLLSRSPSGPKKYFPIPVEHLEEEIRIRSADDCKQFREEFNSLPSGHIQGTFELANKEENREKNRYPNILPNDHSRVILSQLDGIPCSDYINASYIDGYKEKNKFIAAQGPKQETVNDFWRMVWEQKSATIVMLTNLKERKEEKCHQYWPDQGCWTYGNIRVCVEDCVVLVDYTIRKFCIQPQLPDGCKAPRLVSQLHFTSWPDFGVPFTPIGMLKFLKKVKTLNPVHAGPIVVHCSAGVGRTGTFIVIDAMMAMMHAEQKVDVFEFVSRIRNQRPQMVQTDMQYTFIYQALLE
Format: biochemical
Method: (§1) The following in vitro assay procedure is preferred to determine the level of activity and effect of the different compounds of the present invention on one or more of the PTPs. Similar assays can be designed along the same lines for any PTP using techniques well known in the art.
(§2) The catalytic assays described herein are performed in a 96-well format. The general procedure begins with the determination of PTP optimal pH using a three-component buffer system that minimizes ionic strength variations across a wide range of buffer pH. Next, the Michaelis-Menten constant, or Km, is determined for each specific substrate-PTP system. This Km value is subsequently used as the substrate reaction concentration for compound screening. Finally, the test PTP is exposed to varying concentrations of compound for fifteen minutes and allowed to react with substrate for ten minutes. The results are plotted as percent inhibition versus compound concentration and the IC50 interpolated from the plot.
(§3) All assays were performed using pNPP or FDP as substrate. The optimum pH was determined for each PTP used.
(§4) PTPase activity was assayed at 25° C. in a 100-μl reaction mixture containing an appropriate concentration of pNPP or FDP as substrate. The reaction was initiated by addition of the PTP and quenched after 10 min by addition of 50 μl of IN NaOH. The non-enzymatic hydrolysis of the substrate was corrected by measuring the control without the addition of the enzyme. The amount of p-nitrophenol produced was determined from the absorbance at 410 nm. To determine the kinetic parameter, Km, the initial velocities were measured at various substrate concentrations and the data were fitted to the Michaelis equation where velocity=(Vmax*[S])/(Km+[S]), and [S]=substrate reaction concentration.
(§5) The effect of the compounds on PTP was evaluated at 25° C. using pNPP or FDP as substrate. PTP was pre-incubated for fifteen minutes with various concentrations of compound. Substrate was then added at a fixed concentration (usually equal to the Km previously calculated). After 10 minutes, NaOH was added to stop the reaction. The hydrolysis of pNPP was followed at 410 nm on the Biotek Powerwave 200 microplate scanning spectrophotometer. The percent inhibition was calculated as follows: Percent Inhibition=[(control signal−compound signal)/control signal] ×100%. The IC50 was then determined by interpolation of a percent inhibition versus compound concentration plot.
(§6) Plasmids designed for bacterial GST-PTP fusion protein expression were derived by insertion of PCR-generated human PTP fragments into pGEX vectors (Pharmacia Biotech). Several of these constructs were then used to subclone phosphatases into pFastBac-1for expression in Sf-9 insect cells. Oligonucleotides used for the initial amplification of PTP genes are shown below. The cDNAs were prepared using the Gilbo BRL superscript preamplification system on RNAs purchased from Clontech.
The PTPepsilon cDNA was amplified from human placenta single-strand cDNA (Clontech RNA) using the following oligonucleotides: 5′oligo: 5′-[…]-3′ (SEQ ID NO: 6) 3′oligo: 5′-[…]-3′ (SEQ ID NO: 7) After cloning this PCR product into the Bam HI/Xho I sites of pGEX 6P-1, this phosphatase was subcloned using the same restriction sites in pFastBac-G2T.

| Compound | pIC50 |
| --- | --- |
| O=C(NCc1ccc(S(=O)(=O)C(F)(F)F)cc1)c1ccccc1 [Example 6, N-(4-Trifluoromethylsulfonylbenzyl)benzamide] | < 4.00 |
| Cc1cc(NS(=O)(=O)C(F)(F)F)ccc1CCc1ccc(NS(=O)(=O)C(F)(F)F)cc1C [Example 67, 1,2-Bis(2-methyl-4-trifluoromethylsulfonamidophenyl)ethane] | 4.29 |
| O=S(=O)(Nc1ccc(OCCCCOc2ccc(NS(=O)(=O)C(F)(F)F)cc2)cc1)C(F)(F)F [Example 70, 1,4-Bis(4-trifluoromethylsulfonamidophenoxy)butane] | 4.32 |

Further lines, results first:

| pIC50 | Compound |
| --- | --- |
| < 4.00 | O=S(=O)(Nc1ccc(CCc2ccc(NS(=O)(=O)C(F)(F)F)cc2)cc1)C(F)(F)F [Example 66, 1,2-Bis(4-trifluoromethylsulfonamidophenyl)ethane] |
| 4.43 | CC(C)(COc1ccc(NS(=O)(=O)C(F)(F)F)cc1)COc1ccc(NS(=O)(=O)C(F)(F)F)cc1 [Example 68, 1,3-Bis(4-trifluoromethylsulfonamidophenoxy)-2,2-dimethylpropane] |
| 4.39 | O=S(=O)(Nc1ccc(OCCCOc2ccc(NS(=O)(=O)C(F)(F)F)cc2)cc1)C(F)(F)F [Example 69, 1,3-Bis(4-trifluoromethylsulfonamidophenoxy)propane] |

Each compound was assayed against T2, PTP ZETA (Homo sapiens, UniProt P23471) (assay: PTP IC50 assay, pNPP or FDP as substrate). Settings: 25° C.
T2 construct: made in house; host or cells: E. coli BL-21 (pGEX 6P-1)
T2 sequence (P23471 1667-2028 limits assumed): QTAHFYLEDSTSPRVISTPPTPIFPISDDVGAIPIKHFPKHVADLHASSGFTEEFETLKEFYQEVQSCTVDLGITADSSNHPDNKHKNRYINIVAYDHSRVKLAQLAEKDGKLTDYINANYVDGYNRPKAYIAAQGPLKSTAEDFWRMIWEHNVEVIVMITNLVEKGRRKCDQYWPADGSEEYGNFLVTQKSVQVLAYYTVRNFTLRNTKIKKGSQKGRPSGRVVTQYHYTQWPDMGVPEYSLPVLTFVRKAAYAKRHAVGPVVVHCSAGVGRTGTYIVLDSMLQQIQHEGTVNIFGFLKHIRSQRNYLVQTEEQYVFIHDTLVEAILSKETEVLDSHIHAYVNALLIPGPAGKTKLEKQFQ
Format: biochemical
Method: as §1, §2, §3, §4, §5, §6
The PTP Zeta cDNA was amplified from human placenta single strand cDNA (Clontech RNA) using the following oligonucleotides 5′oligo: 5′-[…]-3′ (SEQ ID NO: 10) 3′oligo: 5′-[…]-3′ (SEQ ID NO: 11) and subsequently ligated into pGEX 6P-1 Eco RI/Xho I sites.

| Compound | pIC50 |
| --- | --- |
| O=C(NCc1ccc(S(=O)(=O)C(F)(F)F)cc1)c1ccccc1 [Example 6, N-(4-Trifluoromethylsulfonylbenzyl)benzamide] | < 4.00 |
| Cc1cc(NS(=O)(=O)C(F)(F)F)ccc1CCc1ccc(NS(=O)(=O)C(F)(F)F)cc1C [Example 67, 1,2-Bis(2-methyl-4-trifluoromethylsulfonamidophenyl)ethane] | < 4.00 |
| O=S(=O)(Nc1ccc(OCCCCOc2ccc(NS(=O)(=O)C(F)(F)F)cc2)cc1)C(F)(F)F [Example 70, 1,4-Bis(4-trifluoromethylsulfonamidophenoxy)butane] | < 4.00 |

The next lines start with the values.

| pIC50 | Compound |
| --- | --- |
| < 4.00 | O=S(=O)(Nc1ccc(CCc2ccc(NS(=O)(=O)C(F)(F)F)cc2)cc1)C(F)(F)F [Example 66, 1,2-Bis(4-trifluoromethylsulfonamidophenyl)ethane] |
| < 4.00 | CC(C)(COc1ccc(NS(=O)(=O)C(F)(F)F)cc1)COc1ccc(NS(=O)(=O)C(F)(F)F)cc1 [Example 68, 1,3-Bis(4-trifluoromethylsulfonamidophenoxy)-2,2-dimethylpropane] |
| < 4.00 | O=S(=O)(Nc1ccc(OCCCOc2ccc(NS(=O)(=O)C(F)(F)F)cc2)cc1)C(F)(F)F [Example 69, 1,3-Bis(4-trifluoromethylsulfonamidophenoxy)propane] |

The compounds below were run against T3, PTP MU (Homo sapiens, UniProt P28827) (assay: PTP IC50 assay, pNPP or FDP as substrate). Settings: pNPP or FDP as substrate, 25° C.; read-out: PTP IC50 Mu.
T3 construct: made in house; host or cells: E. coli BL-21 (pGEX 6P-1)
T3 sequence (P28827 831-1186 limits assumed): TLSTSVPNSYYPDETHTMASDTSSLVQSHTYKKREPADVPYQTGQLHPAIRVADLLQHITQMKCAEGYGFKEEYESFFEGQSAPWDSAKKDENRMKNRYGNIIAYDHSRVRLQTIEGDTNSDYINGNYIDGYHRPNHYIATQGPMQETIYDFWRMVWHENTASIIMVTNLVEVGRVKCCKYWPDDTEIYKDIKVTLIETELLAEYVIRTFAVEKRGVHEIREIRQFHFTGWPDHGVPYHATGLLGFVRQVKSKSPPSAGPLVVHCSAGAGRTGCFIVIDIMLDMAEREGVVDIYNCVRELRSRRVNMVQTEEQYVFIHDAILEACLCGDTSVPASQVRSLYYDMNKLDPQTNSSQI
Format: biochemical

| Compound | pIC50 |
| --- | --- |
| O=C(NCc1ccc(S(=O)(=O)C(F)(F)F)cc1)c1ccccc1 [Example 6, N-(4-Trifluoromethylsulfonylbenzyl)benzamide] | < 4.00 |
| Cc1cc(NS(=O)(=O)C(F)(F)F)ccc1CCc1ccc(NS(=O)(=O)C(F)(F)F)cc1C [Example 67, 1,2-Bis(2-methyl-4-trifluoromethylsulfonamidophenyl)ethane] | 4.38 |
| O=S(=O)(Nc1ccc(OCCCCOc2ccc(NS(=O)(=O)C(F)(F)F)cc2)cc1)C(F)(F)F [Example 70, 1,4-Bis(4-trifluoromethylsulfonamidophenoxy)butane] | 4.19 |

Now from value to compound:

| pIC50 | Compound |
| --- | --- |
| 4.15 | O=S(=O)(Nc1ccc(CCc2ccc(NS(=O)(=O)C(F)(F)F)cc2)cc1)C(F)(F)F [Example 66, 1,2-Bis(4-trifluoromethylsulfonamidophenyl)ethane] |
| 4.38 | CC(C)(COc1ccc(NS(=O)(=O)C(F)(F)F)cc1)COc1ccc(NS(=O)(=O)C(F)(F)F)cc1 [Example 68, 1,3-Bis(4-trifluoromethylsulfonamidophenoxy)-2,2-dimethylpropane] |
| 4.43 | O=S(=O)(Nc1ccc(OCCCOc2ccc(NS(=O)(=O)C(F)(F)F)cc2)cc1)C(F)(F)F [Example 69, 1,3-Bis(4-trifluoromethylsulfonamidophenoxy)propane] |

What follows are compounds tested against T4, PTP MEG2 (Homo sapiens, UniProt P43378) (assay: PTP IC50 assay, pNPP or FDP as substrate). Settings: pNPP or FDP as substrate, 25° C.; read-out: PTP IC50 MEG2.
T4 construct: made in house; host or cells: E. coli BL-21 (pGEX 6P-1)
T4 sequence (P43378 262-593 limits assumed): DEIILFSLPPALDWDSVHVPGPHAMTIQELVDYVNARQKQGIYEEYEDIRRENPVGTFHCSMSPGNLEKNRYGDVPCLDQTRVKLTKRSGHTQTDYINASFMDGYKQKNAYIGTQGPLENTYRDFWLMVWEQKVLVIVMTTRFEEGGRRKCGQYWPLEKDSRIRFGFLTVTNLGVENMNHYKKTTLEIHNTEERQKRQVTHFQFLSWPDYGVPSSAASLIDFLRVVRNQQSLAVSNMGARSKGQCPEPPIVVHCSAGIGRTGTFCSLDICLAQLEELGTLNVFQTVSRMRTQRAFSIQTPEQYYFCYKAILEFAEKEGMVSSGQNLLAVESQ
Format: biochemical
Method: as §1, §2, §3, §4, §5, §6
The PTP MEG2 cDNA was amplified from human placenta single strand cDNA (Clontech RNA) using the following oligonucleotides: 5′oligo: 5′-[…]-3′ (SEQ ID NO: 8) 3′oligo: 5′-[…]-3′ (SEQ ID NO: 9) and subsequently ligated into pGex 6P-1 Eco RI/Xho I sites.

| Compound | pIC50 |
| --- | --- |
| O=C(NCc1ccc(S(=O)(=O)C(F)(F)F)cc1)c1ccccc1 [Example 6, N-(4-Trifluoromethylsulfonylbenzyl)benzamide] | < 4.00 |
| Cc1cc(NS(=O)(=O)C(F)(F)F)ccc1CCc1ccc(NS(=O)(=O)C(F)(F)F)cc1C [Example 67, 1,2-Bis(2-methyl-4-trifluoromethylsulfonamidophenyl)ethane] | 4.07 |
| O=S(=O)(Nc1ccc(OCCCCOc2ccc(NS(=O)(=O)C(F)(F)F)cc2)cc1)C(F)(F)F [Example 70, 1,4-Bis(4-trifluoromethylsulfonamidophenoxy)butane] | 4.15 |

The remaining lines, values ahead:

| pIC50 | Compound |
| --- | --- |
| < 4.00 | O=S(=O)(Nc1ccc(CCc2ccc(NS(=O)(=O)C(F)(F)F)cc2)cc1)C(F)(F)F [Example 66, 1,2-Bis(4-trifluoromethylsulfonamidophenyl)ethane] |
| 4.46 | CC(C)(COc1ccc(NS(=O)(=O)C(F)(F)F)cc1)COc1ccc(NS(=O)(=O)C(F)(F)F)cc1 [Example 68, 1,3-Bis(4-trifluoromethylsulfonamidophenoxy)-2,2-dimethylpropane] |
| < 4.00 | O=S(=O)(Nc1ccc(OCCCOc2ccc(NS(=O)(=O)C(F)(F)F)cc2)cc1)C(F)(F)F [Example 69, 1,3-Bis(4-trifluoromethylsulfonamidophenoxy)propane] |

The compounds below were run against T5, PTP SIGMA (Homo sapiens, UniProt Q13332) (assay: PTP IC50 assay, pNPP or FDP as substrate). Settings: pNPP or FDP as substrate, 25° C.; read-out: PTP IC50 Sigma.
T5 construct: made in house; host or cells: E. coli BL-21 (pGEX 6P-1)
T5 sequence (Q13332 1320-1660 limits assumed): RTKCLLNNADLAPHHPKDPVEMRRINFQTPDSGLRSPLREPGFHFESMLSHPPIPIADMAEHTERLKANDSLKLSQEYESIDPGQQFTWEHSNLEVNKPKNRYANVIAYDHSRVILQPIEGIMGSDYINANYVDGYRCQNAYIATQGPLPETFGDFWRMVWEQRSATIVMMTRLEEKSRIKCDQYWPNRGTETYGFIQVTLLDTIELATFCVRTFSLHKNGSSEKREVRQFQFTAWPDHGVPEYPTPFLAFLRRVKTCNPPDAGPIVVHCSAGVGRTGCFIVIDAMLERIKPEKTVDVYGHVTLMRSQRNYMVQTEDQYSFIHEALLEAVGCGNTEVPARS
Format: biochemical
Method: as §1, §2, §3, §4, §5, §6
The PTP Sigma cDNA was amplified from human brain single strand cDNA (Clontech RNA) using the following oligonucleotides: 5′oligo: 5′-[…]-3′ (SEQ ID NO: 12) 3′oligo: 5′-[…]-3′ (SEQ ID NO: 13) and subsequently ligated into pGex 6P-1 Eco RI/Xho I sites.

| Compound | pIC50 |
| --- | --- |
| O=C(NCc1ccc(S(=O)(=O)C(F)(F)F)cc1)c1ccccc1 [Example 6, N-(4-Trifluoromethylsulfonylbenzyl)benzamide] | < 4.00 |
| Cc1cc(NS(=O)(=O)C(F)(F)F)ccc1CCc1ccc(NS(=O)(=O)C(F)(F)F)cc1C [Example 67, 1,2-Bis(2-methyl-4-trifluoromethylsulfonamidophenyl)ethane] | 4.38 |
| O=S(=O)(Nc1ccc(OCCCCOc2ccc(NS(=O)(=O)C(F)(F)F)cc2)cc1)C(F)(F)F [Example 70, 1,4-Bis(4-trifluoromethylsulfonamidophenoxy)butane] | 4.42 |

More lines, now with the values ahead:

| pIC50 | Compound |
| --- | --- |
| < 4.00 | O=S(=O)(Nc1ccc(CCc2ccc(NS(=O)(=O)C(F)(F)F)cc2)cc1)C(F)(F)F [Example 66, 1,2-Bis(4-trifluoromethylsulfonamidophenyl)ethane] |
| 4.94 | CC(C)(COc1ccc(NS(=O)(=O)C(F)(F)F)cc1)COc1ccc(NS(=O)(=O)C(F)(F)F)cc1 [Example 68, 1,3-Bis(4-trifluoromethylsulfonamidophenoxy)-2,2-dimethylpropane] |
| 4.38 | O=S(=O)(Nc1ccc(OCCCOc2ccc(NS(=O)(=O)C(F)(F)F)cc2)cc1)C(F)(F)F [Example 69, 1,3-Bis(4-trifluoromethylsulfonamidophenoxy)propane] |
